How the values were obtained:
[1] = tested on: rats subjected to ischemic/reperfusion injury by middle cerebral artery (MCA) occlusion; assay: Transmission electron microscopy of brain tissue, ischemic penumbra, after MCA occlusion (Example 3); format: in vivo, Sprague-Dawley rats; conditions: for number of vessels per field (patent microvessels): 120 min MCA occlusion, 4 hrs reperfusion, 0.2 mg/kg bolus intraperitoneal at onset of reperfusion, 1200x fields, n=4, FIG. 5
Experimental: Sprague-Dawley rats underwent 120 minutes MCA occlusion, followed by 4 hrs of reperfusion. Rats were treated with either TAT or δV1-1-TAT peptides at the onset of reperfusion by bolus intraperitoneal injection (0.2 mg/kg in 1 mL, n=4 per group). […] Following the reperfusion period, rats were heavily anesthetized using isoflurane, and underwent transcardial perfusion using 0.7% NaCl/PBS followed by 4% formaldehyde in 0.7% NaCl/PBS.
Brains were removed and kept at 4° C. overnight in 2% formaldehyde/2% glutaraldehyde in 0.1M sodium cacodylate buffer, pH 7.3, Brain sections (˜1 mm^3) were then dissected from the cortical surface, at ˜1 mm anterior/˜6 mm lateral to bregma on the ipsilateral cortex (corresponding to the area measured by laser Doppler flowmetry). Tissue was post-fixed in 1% osmium tetroxide for 1 hr, washed with water, and stained in 1% uranyl acetate solution. Tissue was dehydrated using an ethanol gradient followed by 100% propylene oxide, and infiltrated with Epon and Embed 812 medium, placed in molds, and polymerized overnight at 65° C. before slicing. Sections (75 and 90 nm) were picked up on formvar/Carbon coated Cu grids, stained for 15 seconds in 1:1 Super-saturated uranyl acetate (7.7%) in acetone followed by staining in 0.2% lead citrate for 3 to 4 minutes (all reagents from Electron Microscopy Sciences, PA).
To quantitate number of patent vessels, 10-15 non-overlapping fields (1200× magnification) were photographed from 2-3 slices taken from each animal. Vessels were identified and counted if lumen and endothelial lining was apparent; vessels were confirmed by scanning over these fields at higher magnification. Assessments of vessel count were performed by an observer blinded to treatment group. The number of vessels per field was then averaged for each group of animals (n=4 per group). Statistical differences between groups were analyzed using an unpaired t-test. Higher magnification images (5000-15000×) were taken to assess microvascular morphology.

[2] = tested on: rats subjected to ischemic/reperfusion injury; assay: Cerebral blood flow after repeated intraperitoneal administrations (Example 2); format: in vivo
From the text: (§1) Ischemia and reperfusion were induced in male Sprague-Dawley rats using an occluding intraluminal suture as described in Maier, et al., J. Neurosurg. 94(1):90-96 (2001). Briefly, an uncoated 30 mm long segment of 3-0 nylon monofilament suture with the tip rounded by a flame was inserted into the stump of the external carotid artery and advanced into the internal carotid artery 19-20 mm from the bifurcation to occlude the ostium of the middle cerebral artery (MCA). Following placement of the suture, the wound was closed and animals were placed back in cages for a period of two hours. Following this period, animals were reanestheized and the suture was withdrawn to allow reperfusion of the brain.
Immediately following reperfusion, the rats were placed in a stereotaxic frame, and a burr hole was drilled through the skull 1 mm posterior and 6 mm lateral to the bregma on the ipsilateral hemisphere corresponding to the ischemic territory. Cerebral blood flow (CBF) was measured via this burr hole using a laser Doppler probe controlled by a micromanipulator (Laserflo BPM403A laser-Doppler flowmeter, Vasamedic, St. Paul, Minn.). The display is digital only, collects eight data points per second, and was set to give a moving average of data every 0.1 sec. […] CBF readings began at 30 minutes from the onset of reperfusion. […]

[3] = tested on: rats subjected to ischemic/reperfusion injury by middle cerebral artery (MCA) occlusion; assay: Cerebral blood flow by laser Doppler flowmetry after single intraperitoneal bolus (Example 1); format: in vivo, Sprague-Dawley rats; conditions: bolus intraperitoneal delivery
From the text: Male Sprague-Dawley rats (280-320g; n=8) were used for cerebral ischemia and reperfusion, and subsequent monitoring of cerebral blood flow. Tat or δV1-1 peptides were synthesized and conjugated via a Cys S—S bond as described previously (Chen, et al., Proc. Natl. Acad. Sci. USA 25(20):11114-11119 (2001); Inagaki, et al., Circulation 11(108):2304-2307 (2003)). Rats were sacrificed by overdose of isoflurane immediately following procedure
as §1
Immediately following reperfusion, the rats were placed in a stereotaxic frame, and a burr hole was drilled through the skull 1 mm posterior and 6 mm lateral to the bregma on the ipsilateral hemisphere corresponding to the ischemic territory. Cerebral blood flow (CBF) was measured via this burr hole using a laser Doppler probe controlled by a micromanipulator (Laserflo BPM403A laser-Doppler flowmeter, Vasamedic, St. Paul, Minn.). The display is digital only, collects eight data points per second, and was set to give a moving average of data every 0.1 sec. (Perez-Pinzon, et al., J. Neurolog. Sci. 153 (1):25-31 (1997); Borlongan, et al., Brain Res. 1010(1-2):108-116 (2004)). CBF readings began at 30 minutes from the onset of reperfusion. Following a period of 20-30 minutes to establish baseline CBF, a δPKC inhibitor, the δV1-1 peptide (which was conjugated to Tat for delivery), was injected by intraperitoneal bolus, and blood flow was monitored for an additional 20-30 minutes.

[4] = rats subjected to ischemic/reperfusion injury (2 h MCA occlusion), within 30 minutes, FIG. 2
[5] = sham (non-stroked) rats, within 30 minutes of delivery, FIG. 1

## SFNSYELGSL [δV1-1-TAT]
[1]
  number of vessels per field (patent microvessels): 3.1±0.6 vessels/field
[1]; ischemic animals, 0.2 mg/kg at reperfusion only, FIGS. 4F, 4I, 4L
  microvascular structure (higher magnification TEM): significantly less damaged
[2]; ischemic/reperfusion rats treated multiple times
  desensitization to the inhibitor: did not become desensitized
[2]; ischemic/reperfusion rats, repeated intraperitoneal administrations, FIG. 3
  cerebral blood flow (CBF): further increased blood flow
[3]; [4]
  cerebral blood flow (CBF): increased cerebral blood flow
[3]; [5]
  cerebral blood flow (CBF): no change in blood flow

## YGRKKRRQRRR [TAT, reference compound]
[1]
  number of vessels per field (patent microvessels): 1.6±0.6 vessels/field
[3]; [4]
  cerebral blood flow (CBF): no effect on CBF
[3]; [5]
  cerebral blood flow (CBF): no effect on CBF

Reference: patent publication US8492348B2, “Methods of increasing cerebral blood flow” (The Board of Trustees of the Leland Stanford Junior …, priority 2005, dated 2013)
